Structures can show the parent of a compound that is named as a salt.
Assays:
[1] = test system: isolated rabbit aorta (vascular smooth muscle); assay: calcium antagonist activity on isolated rabbit aorta (CaCl2-induced contraction)
Excerpt: Isolated rabbit aorta: ratio between the CaCl2 con-

anesthetized rat [2] = assay: antiarrhythmic activity against calcium chloride-induced arrhythmia after intravenous administration in anesthetized rat; assay type: in vivo; details: for ED50: Rattus norvegicus, iv, ten minutes before calcium chloride, read-out: ED50 (dose effective to antagonize the appearance of arrythmia in the 50% of the treated animals)
Protocol: The evaluation of the antiarrhythmic activity has been performed in the anesthetized rat with the method of M. Malinov et al. (Am. J. Physiol. 172, 743-746, 1953).
Arrythmia has been induced by administering (0.25 ml in 30 seconds) a saline solution containing 15% of calcium chloride into the jugular vein.
In these experimental conditions arrythmia occurs in the 90% of the animals. The compounds have been administered intravenously ten minutes before calcium chloride. The antiarrythmic activity has been referred as dose effective to antagonize the appearance of arrythmia in the 50% of the treated animals (ED50).

anesthetized rat [3] = assay: coronary dilating activity (coronary spasm induced by Vasopressin, T wave in E.C.G.) in anesthetized rat; assay type: in vivo; details: T wave restored in 50% of the animals within 2 minutes; for ED50: Rattus norvegicus, iv, 2 min
Excerpt: The evaluation of the coronary dilating activity has been performed with the method of O. Nieschultz, et al. (Arzneim. Forsch. 5, 680, 1955).

in vivo = assay type: in vivo; details: rat, in vivo, iv, ratio between the dose inducing bradycardia 20 and the effective anti-anginal dose 50; read-out: Therapeutic index
Excerpt: (§1) Furthermore, tolerability has been tested in the same experimental conditions in which it has been performed the pharmacological study in vivo.
(§2) Tolerability has been referred as effective dose to reduce heart rate of 20%. Therapeutic index has been determined as ratio between the dose inducing bradycardia 20 and the effective anti-anginal dose 50.

anesthetized rat [4] = assay: in vivo; assay type: in vivo; details: for Tolerability: Heart rate (-20%): i.v., compounds solubilized in 40% glyceril formal; for Therapeutic index: ratio between the dose inducing bradycardia 20 and the effective anti-anginal dose 50
Excerpt: as §1, §2

[5] = concentration in perfused liquid 10^-5 M
[6] = concentration in perfused liquid 10^-6 M
[7] = read-out: Coronary dilating activity ED50, i.v. 60 seconds after Vasopressin
[8] = i.v. 60 seconds after Vasopressin
[9] = i.v. 60 seconds after Vasopressin, read-out: Coronary dilating activity ED50

Compound	ratio between the CaCl2 concentration producing the 50% contraction in presence or in absence of various compounds [1, 5]	ratio between the CaCl2 concentration producing the 50% contraction in presence or in absence of various compounds [1, 6]	ED50 (anesthetized rat [3]; [7]) [µmol/kg]	selectivity ratio (in vivo)	Tolerability: Heart rate (-20%) (anesthetized rat [4]) [nmols/kg]	further results
CSc1ccc([C@H](O)[C@H](CO)NC(C)CCc2ccccc2)cc1.Cl (relative stereo) [Z. 1411, (1S,2S)-1-(4-methylthiophenyl)-2-(1-methyl-3-phenylpropylamino)-1,3-propanediol hydrochloride]	15	10	0.001	44	44	ED50 (anesthetized rat [2]): 13 µmol/kg; number of protected rats/total number (anesthetized rat [2]; dose 8 μmols/Kg i.v.): 0/8; number of protected rats/total number (anesthetized rat [2]; dose 12 μmols/Kg i.v.): 4/8; number of protected rats/total number (anesthetized rat [2]; dose 16 μmols/Kg i.v.): 6/8
CSc1ccc([C@@H](O)[C@@H](CO)NC(C)COc2ccccc2)cc1 (some centres unmarked) [Z. 1407]			0.0032	17	53	
CC(Cc1ccccc1)NCCC(c1ccccc1)c1ccccc1 (centres unmarked) [Prenylamine, reference compound]	62	12	0.00184	11	19	
CSc1ccc([C@H](O)[C@H](CO)NC(C)c2ccccc2)cc1 (relative stereo) [Z. 1413, (1S,2S,1'S*)-1-(4-methylthiophenyl)-2-(1-methylbenzylamino)-1,3-propanediol]					230	Coronary dilating activity ED50 (anesthetized rat [3]; [8]): 4.5 nmols/kg/i.v.; Therapeutic index (anesthetized rat [4]): 51
CSc1ccc([C@H](O)[C@H](CO)NC(C)COc2ccccc2)cc1 (some centres unmarked) [Z. 1394]	7	3				
CSc1ccc([C@H](O)[C@H](CO)NC(C)c2ccccc2)cc1 (some centres unmarked) [Z. 1414]			0.004		100	Therapeutic index (anesthetized rat [4]): 25
CSc1ccc([C@H](O)[C@H](CO)NCC(c2ccccc2)c2ccccc2)cc1 [Z. 1415, (1S,2S)-1-(4-methylthiophenyl)-2-(2,2-diphenylethylamino)-1,3-propanediol]	27	6	0.0029	17	49	
CSc1ccc([C@H](O)[C@H](CO)NCCC(c2ccccc2)c2ccccc2)cc1 [Z. 1382, (1S,2S)-1-(4-methylthiophenyl)-2-(3,3-diphenylpropylamino)-1,3-propanediol acid maleate]	255	20	0.00084	20	17	ED50 (anesthetized rat [2]): 19 µmol/kg; number of protected rats/total number (anesthetized rat [2]; dose 7.6 μmols/Kg i.v.): 1/8; number of protected rats/total number (anesthetized rat [2]; dose 13.4 μmols/Kg i.v.): 4/8; number of protected rats/total number (anesthetized rat [2]; dose 20 μmols/Kg i.v.): 3/8; number of protected rats/total number (anesthetized rat [2]; dose 27 μmols/Kg i.v.): 5/8
CSc1ccc([C@H](O)[C@H](CO)NC(C)COc2ccccc2)cc1 (some centres unmarked) [Z. 1393]			0.0038	9	35	
CSc1ccc([C@H](O)[C@H](CO)N(C)C(C)CCc2ccccc2)cc1 (some centres unmarked) [Z. 1428]	30	2				
COC(=O)C1=C(C)NC(C)=C(C(=O)OC)C1c1ccccc1[N+](=O)[O-] [Nifedipine, reference compound]						ED50 (anesthetized rat [3]; [9]): 0.00057 µmol/kg
COc1ccc(CCN(C)CCCC(C#N)(c2ccc(OC)c(OC)c2)C(C)C)cc1OC (centres unmarked) [Verapamil, reference compound]			0.00015			ED50 (anesthetized rat [2]): 6 µmol/kg; number of protected rats/total number (anesthetized rat [2]; dose 4.4 μmols/Kg i.v.): 2/8; number of protected rats/total number (anesthetized rat [2]; dose 7.7 μmols/Kg i.v.): 5/8; number of protected rats/total number (anesthetized rat [2]; dose 11 μmols/Kg i.v.): 6/8
CSc1ccc([C@H](O)[C@H](CO)NCC(C)c2ccccc2)cc1.Cl (stereo partly drawn) [Z. 1409, (1S,2S)-1-(4-methylthiophenyl)-2-(2-phenylpropylamino)-1,3-propanediol hydrochloride]	12	4	0.00084	87	73	ED50 (anesthetized rat [2]): 43 µmol/kg; number of protected rats/total number (anesthetized rat [2]; dose 8 μmols/Kg i.v.): 0/8; number of protected rats/total number (anesthetized rat [2]; dose 16 μmols/Kg i.v.): 2/8; number of protected rats/total number (anesthetized rat [2]; dose 24 μmols/Kg i.v.): 3/8; number of protected rats/total number (anesthetized rat [2]; dose 48 μmols/Kg i.v.): 5/8
Fc1ccc(C(c2ccc(F)cc2)N2CCN(C/C=C/c3ccccc3)CC2)cc1 [Flunarizine, reference compound]	16	1				ED50 (anesthetized rat [3]; [9]): 0.00048 µmol/kg
COc1ccc(CCC(C)N[C@@H](CO)[C@@H](O)c2ccc(SC)cc2)cc1OC.Cl (relative stereo) [Z. 1434, (1S,2S)-1-(4-methylthiophenyl)-2-[1-methyl-3-(3,4-dimethoxyphenyl)-propylamino]-1,3propanediol hydrochloride]	21	5	0.00045	93	42	
CSc1ccc([C@H](O)[C@H](CO)N2CCN(C(c3ccccc3)c3ccccc3)CC2)cc1 [Z. 1439]	24	4	0.0033	7	23	
CSc1ccc([C@@H](O)[C@H](CO)NCCC(c2ccccc2)c2ccccc2)cc1 [Z. 1373]	86	9	0.0034	7	23	
CSc1ccc([C@@H](O)[C@@H](CO)NC(C)COc2ccccc2)cc1 (some centres unmarked) [Z. 1408]					76	ED50 (anesthetized rat [2]): 35 µmol/kg; number of protected rats/total number (anesthetized rat [2]; dose 16 μmols/Kg i.v.): 1/8; number of protected rats/total number (anesthetized rat [2]; dose 32 μmols/Kg i.v.): 4/8; number of protected rats/total number (anesthetized rat [2]; dose 56 μmols/Kg i.v.): 6/8; Coronary dilating activity ED50 (anesthetized rat [3]; [8]): 3.7 nmols/kg/i.v.; Therapeutic index (anesthetized rat [4]): 21
